Source: patent US9067920B2, “Compounds useful for inhibiting Chk1” (Eli Lilly and Company, priority 2010, dated 2015)
Counter-ions that a name gives are not always drawn.

What was measured:
[1] = system: HeLa cells; assay: Doxorubicin-induced G2M checkpoint abrogation HeLa cell-based Acumen assay (pHH3); details: 125 nM doxorubicin, 7 h compound
Protocol: An inhibitor of Chk1 will disable the G2M DNA damage checkpoint in p53-minus tumor cells treated with the topoisomerase II inhibitor, doxorubicin. A measurement of G2M checkpoint abrogation is the phosphorylation of histone H3 on serine 10 that occurs after cells traverse the G2M checkpoint and enter mitosis. The following high content imaging assay can be used to measure the phosphorylation histone H3 in cells. HeLa cells are cultured in MEM Media supplemented with 10% (v/v) FBS and plated at 2000 cells per well in poly D-lysine coated clear bottom black plates, 100 μL volume per well. Plates are then incubated in a cell culture incubator for 18-24 h (37° C., 5% CO2 and 95% relative humidity), Following the initial incubation, 20 μL of MEM Media plus 10% FBS containing […] doxorubicin are added to the appropriate wells of the plates resulting in a final concentration of 125 nM. The plates are returned to the incubator for 24 h, sufficient to arrest the cells at the G2M checkpoint. The next day the cells are treated 1.0 with compounds. Compounds are solubilized at […] in 100% DMSO and then diluted to a 10× stock starting at 50 μM in MEM plus 4% (v/v) DMSO. Subsequently, serial dilutions of the compounds (1:2) are prepared over a 50 μM to 0.39 μM range. Thirteen μL of compound stock is added to the appropriate wells in the plate to produce a final DMSO concentration of 0.4% and a final compound concentration range between 5 and 0.039 μM. […] Plates are scanned with ACUMEN EXPLORER™ Laser-scanning fluorescence microplate cytometers using 488 nm excitation (TTP LABTECH LTC) to measure pHH3 and DNA content including 2N, and 4N, The pHH3 positive cells are identified by mean intensity at 519 nm from Alexa 488. […] The final readout for each population is determined by normalizing to the % of total cells producing a final assay output of % pHH3, % 2N, and % 4N. 100% activity is then determined by treating cells with the maximum concentration of an inhibitor control compound at 100 nM to determine the final % activity of each compound. […]

[2] = biological target: recombinant Chk2 protein kinase (Homo sapiens, UniProt O96017); assay: Chk2 biochemical assay (CHK2/substrate peptide filter binding); details: 60 μM ATP, 1.4 nM Chk2 enzyme
Protocol: The effect of compounds on Chk2 biochemical activity can be determined using a CHK2/substrate peptide filter binding assay. In this assay, a synthetic peptide based on the amino acid sequence residues 206-225 of Cdc25C, is used as a phospho-acceptor substrate for recombinant Chk2 protein kinase. Using γ-^33P-ATP as the phospho-donor substrate, Chk2 transfers the radioactive γ-^33phosphate group to the synthetic peptide. The reaction is measured by capturing the peptide substrate on a cation exchange paper filter plate and scintillation counting of emitted beta particles.
The kinase reactions (40 μL reaction volumes) are performed in 96-well V-bottom polystyrene plates. Reactions are initiated with the addition of Chk2 enzyme. […]
Following Chk2 enzyme addition, the reactions are incubated at room temperature for 90 min, and then terminated with the addition of 140 μL of phosphoric acid. […] After sitting for 4 h at room temperature, the radioactivity in the plate is measured using a MicroBeta Trilux microplate scintillation counter (Perkin Elmer).
For IC50 determination, the percent inhibition for each concentration is calculated using the […] from controls run on each plate. […] Absolute IC50 values are calculated from the resulting curve. […]

[3] = system: Calu-6 lung tumor xenograft; assay: Calu-6 tumor xenograft model, oral administration of Chk1 inhibitor; format: in vivo, nude mice; details: Calu6, gemcitabine 40 mpk ip alone
Protocol: (§1) The ability of Chk1 inhibitors to potentiate tumor killing by DNA damaging agents can be determined in vivo using the Calu-6 lung and HT-29 colon tumor xenograft efficacy models. Calu-6 lung cancer cells are cultured in growth media (MEM with Earle's Balanced Salt Solution with L-glutamine supplemented with 10% (v/v) heat inactivated FBS, 1×MEM non-essential amino acids, 1× sodium pyruvate) and HT-29 colon cancer cells (ATCC) are cultured in growth media, (McCoy's 5A medium supplemented with 10% FBS) and expanded.
(§2) Cells are harvested and washed twice with phosphate buffered saline and 5×10^6 cells (HT-29) or 1×10^6 a cells (Calu-6) in growth media (without serum) are mixed with equal volume of BD Matrigel™ matrix, then injected subcutaneously into the flank of nude mice (CD-1 nu/nu).
(§3) At about day 16 after implant (150-200 mm^3), gemcitabine is formulated fresh in saline daily and administered to animals by intraperitoneal route at 40 mg/kg dose. Twenty four hours later animals are administered Chk1 compound, in 0.2% Tween-80/0.5% methylcellulose by the oral route MD. After three days of rest, dosing was repeated for three additional cycles (Q5Dx4 with the compound of Example 3 offset+24 hours). Tumor growth inhibition (TGI) is calculated as described in the previous paragraph. Compounds within the scope of the invention are tested in this assay run substantially as above.

[4] = system: HT-29 colon carcinoma cells; assay: ECtfs (two-fold sensitization) assay, gemcitabine potentiation, MTS; format: cell-based; details: Homo sapiens, HT-29 cells
Protocol: An inhibitor of Chk1 can potentiate the anti-proliferative activity of gemcitabine (or other cytotoxics) through abrogation of the intra-S phase checkpoint, resulting in sustained and increased DNA damage. The capacity for continued tumor cell proliferation after DNA damage can be analyzed by determining the ability of cells to replicate their DNA. […] In this assay, cells are treated with a dilution series of gemcitabine, and then 22 h later with the compound of Example 3, After an additional 44 h, the relative cell number is assessed by a MTS (3-(4,5-dimethylthiazol-2-yl)-5-(3-carboxymethoxyphenyl)-2-(4-sulfophenyl)-2H-tetrazolium) dye reduction assay. The ECtfs parameter is a measure of the concentration of a Chk1 inhibitor necessary to reduce by half the (1190 concentration of gemcitabine, measured in this assay in the absence of Chk1 inhibition. HT-29 cells (obtained from ATCC), are grown in RPMI 1640 plus 10% (v/v) heat inactivated FBS, The cells are plated at 2.5×10^3 per well, in a volume of 100 μL on 96-well tissue culture plates and incubated for 24 h. Gemcitabine dilutions are prepared at 6× concentrations in McCoy's 5A medium (modified) (1×) and added to wells at 20 μper well. Gemcitabine dilutions were set up with the highest final concentration of gemcitabine being 1.0 μM and dilutions made by three-fold steps to 0.5 nM.
Chk1 Inhibitor is prepared by dilutions in DMSO to 4000× final concentration, and then diluted 666-fold into McCoy's medium to generate 6× stocks. Chk1 inhibitor dilutions proceed by 2.5-fold steps starting at 25 nM down to 0.3 nM. Twenty-two hours 1.0 after gemcitabine addition, Chk1, inhibitor is added in a volume of 24 μL to wells containing 120 μL of medium plus gemcitabine. Each gemcitabine dilution receives a single Chk1 inhibitor dilution. Control wells received DMSO, gemcitabine, or Chk1 inhibitor alone. Forty-four hours after addition of Chk1 inhibitor, 30 μL of CellTiter 96® AQueous assay reagent, is added to each well and held at room temperature for 1 hour and 45 minutes. Absorbance is read on a SpectraMax 250 (Molecular Devices) spectrophotometer at 490 nm. Data from the SpectraMax spectrophotometer are analyzed with GraphPad Prism 4.0. First, an averaged no cell control absorbance is subtracted from all other values in the matrix of data from each plate. Next, duplicate data points are averaged. Data are normalized for each Chk1 inhibitor concentration, with 0% cell number set as corrected A490=0, and 100% cell number set as the 0 nM gemcitabine mean value. […] Gemcitabine concentrations are converted to log concentrations, and normalized cell number values are converted to percent inhibition (percent inhibition=1.00-normalized value). Transformed data are plotted, and a non-linear regression is run to estimate an IC50 value for gemcitabine at each Chk1 inhibitor concentration. The nonlinear regression is calculated allowing the slope to vary, and without constraints for the top or bottom of the dose-response curves. The ECtfs value is calculated as follows: GI50 values for gemcitabine for each Chk1 inhibitor concentration are determined, plotted, and the concentration of Chk1 inhibitor necessary to decrease the gemcitabine alone GI50 by two-fold is determined by interpolation.
Compounds within the scope of the invention are tested in this assay run substantially as above. For example, the compound of Example 3 is tested and found to have an ECtfs value of 1.0 nM (SE=0.1, n=3). […]

[5] = system: HT-29 colon tumor xenograft; assay: HT-29 tumor xenograft model, oral administration of Chk1 inhibitor; format: in vivo, nude mice; details: HT29, gemcitabine 40 mpk ip alone
Protocol: as §1, §2, §3

[6] = system: HT-29 colon tumor xenograft; assay: HT-29 tumor xenograft model, subcutaneous administration of Chk1 inhibitor; format: in vivo, nude mice; details: HT29, gemcitabine 60 mpk ip alone
Protocol: as §1, §2
(§4) At about day 16 after implant ([…]), gemcitabine is formulated fresh in saline daily and administered to animals by intraperitoneal route at 60 mg/kg dose. Twenty four hours later animals are administered the compound of Example 3, in 0.2% Tween-80/0.5% methylcellulose subcutaneously BID. After […], dosing is repeated for three additional cycles (Q4Dx4 with the compound of Example 3 offset+24 hours), Tumor growth inhibition (TGI) is calculated as the percent reduction in mean tumor size of a compound treated group from the mean tumor size of the vehicle-treated control group. Compounds within the scope of the invention are tested in this assay run substantially as above.

[7] = system: Calu-6 lung tumor xenograft; assay: Calu-6 tumor xenograft model, subcutaneous administration of Chk1 inhibitor; format: in vivo, nude mice; details: Calu 6, gemcitabine 60 mpk ip alone
Protocol: as §1, §2, §4

Chain of recombinant Chk2 protein kinase (O96017 whole entry, the tested form may be a part): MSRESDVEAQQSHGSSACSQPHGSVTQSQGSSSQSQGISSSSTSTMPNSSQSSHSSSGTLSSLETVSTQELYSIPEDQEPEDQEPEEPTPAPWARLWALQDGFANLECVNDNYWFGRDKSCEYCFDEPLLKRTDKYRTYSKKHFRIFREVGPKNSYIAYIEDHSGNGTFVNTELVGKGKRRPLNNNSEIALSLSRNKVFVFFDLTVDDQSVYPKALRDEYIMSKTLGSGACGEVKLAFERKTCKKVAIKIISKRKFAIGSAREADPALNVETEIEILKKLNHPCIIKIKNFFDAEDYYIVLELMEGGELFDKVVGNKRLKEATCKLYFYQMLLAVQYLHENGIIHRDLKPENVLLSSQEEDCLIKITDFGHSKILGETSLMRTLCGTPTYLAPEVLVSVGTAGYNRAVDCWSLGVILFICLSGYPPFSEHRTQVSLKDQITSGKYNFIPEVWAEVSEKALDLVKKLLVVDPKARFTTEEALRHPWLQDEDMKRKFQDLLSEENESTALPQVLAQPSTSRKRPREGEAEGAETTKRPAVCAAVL

| EC50 [1] [nM] | IC50 [2] [nM] | Structure (SMILES) | % TGI at day 37 [3] [%] | IC50 ([4]; [Example 3] 0 nM) [nM] | EC50 ([4]; gemcitabine alone) [nM] | % TGI at day 50 [5] [%] | % TGI at day 38 [6] [%] | % TGI at day 47 [7] [%] |
| --- | --- | --- | --- | --- | --- | --- | --- | --- |
| 33 | 12 | COc1nc(C)ccc1-c1cc(Nc2cncc(O[C@@H]3CCCNC3)n2)[nH]n1 [Example 2, (R)-[5-(2-Methoxy-6-mcethyl-pyridin-3-yl)-2H-pyrazol-3-yl]-[6-(piperidin-3-yloxy)-pyrazin-2-yl]-amine methane sulfonic acid salt] |  |  |  |  |  |  |
|  |  | Nc1ccn([C@@H]2O[C@H](CO)[C@@H](O)C2(F)F)c(=O)n1 [Gemcitabine, gemcitabine, reference compound] | 32 | 22 | 22 | 25 | 11 | −41 |
